Assay results from US12703679B2, “Sulfone compounds and pharmaceutical compositions thereof, and their therapeutic applications” (Cura Therapeutics, LLC, priority 2019, dated 2026).

Assays:
[1] = test system: Aß40; assay: Attenuating the amyloid β40 level in neurons differentiated from familial Alzheimer's disease patient iPSCs (ELISA); assay type: cell-based, human; details: 10 μM test compound, FIG. 3
Experimental: Induced pluripotent stem cells from a familial Alzheimer's disease patient carrying a duplication of the amyloid precursor protein gene were differentiated to neurons using standard protocols. Israel et al., Nature 2012, 482, 216-220. Neural precursor cells were plated on 24-well plates and differentiated to neurons over three weeks. There was an exponential increase in the levels of Aß secreted in these cells starting on Day 4 in culture. […]

[2] = test system: Aß40 in CSF; assay: Reduction of Aß40 in CSF of Sprague Dawley rats after single dose intravenous and oral administration; assay type: in vivo
Experimental: This non-GLP study had two groups that received compound A1 by intravenous (IV) and oral (PO) administration with 3-6 male rats in each group. Rats received an IV dose of compound A1 at 1 mg/kg. Rats received a PO dose of compound A1 at 10 mg/kg. Plasma samples were collected pre-dose, 0.167 (10 min), 0.5, 1, 2, 4, 6, 8, 12, and 24 h post-dose. CSF samples were collected pre-dose, 0.5, 1, 2, 4, 8, 12, and 24 hours post-dose.

SMILES	decrease of Aß40 relative to untreated cells (PBS) ([1]; daily treatment, by Day 6 of treatment, iPSC-derived neurons)	reduction of Aß40 relative to untreated cells (PBS) ([1]; within 24 h, iPSC-derived neurons (APP gene duplication)) [%]	reduction of Aß40 in CSF ([2]; single IV dose 1 mg/kg, rats, by 4 h post administration, FIG. 5)	time Aß40 levels in CSF remained lower than starting levels ([2]; single PO dose 10 mg/kg, male rats, FIG. 4)	decrease of Aß40 in CSF ([2]; single PO dose 10 mg/kg, male rats, by 2 h post administration, FIG. 4)
COc1cc(CS(=O)(=O)c2cccc(C(=O)O)c2)cc(OC)c1 [Compound A2, 3-((3,5-dimethoxybenzyl)sulfonyl)benzoic acid]	greater than 30%	20	–	–	–
Cc1ccc(C(F)(F)F)cc1CS(=O)(=O)c1cccc(C(=O)O)c1 [Compound A1, 3-((2-methyl-5-(trifluoromethyl)benzyl)sulfonyl)benzoic acid]	–	–	20-60%	up to 24 h	up to 50%
